Consider one molecule from US20220062299A1, “USE OF GLUCOCORTICOID STEROIDS IN PREVENTING AND TREATING CONDITIONS OF MUSCLE WASTING, AGING AND METABOLIC DISORDER” (NORTHWESTERN UNIVERSITY, priority 2018, published 2022).

For the series, the system named is mdx mice. As to the kind of experiment: Dosing of metabolic and endocrine biomarkers in blood, serum and tissues, mdx mice, long-term (40 weeks) weekly prednisone. It is filed as in vivo. Here is the method: Animal handling and steroid regimens. Mice were housed in a pathogen-free dedicated vivarium in accordance with Institutional Animal Care and Use Committee (IACUC) guidelines. Euthanasia was performed through carbon dioxide inhalation followed by cervical dislocation and heart removal. All methods using living animals in this study were performed in ethical accordance with the American Veterinary Medical Association (AVMA) and under protocols fully approved by both the Institutional Animal Care and Use Committee (IACUC) at Northwestern University Feinberg School of Medicine (protocol number ISO00000761). Consistent with the ethical approvals, all efforts were made to minimize suffering. Mice were fed ad libitum with Mouse Breeder Sterilizable Diet (#7904; Harlan Teklad, Indianapolis, Ind.) and maintained on a 12-hour light/dark cycle. mdx mice from the DBA/2J background were obtained from the Jackson Laboratory (Bar Harbor, Me.; stock #013141) and interbred. Male mice were used for reported experiments. Age at start was approximately 6 months for short-term experiments, approximately 6 weeks for long-term experiments. Dysferlin-null (Dysf-null) mice from the 129T2/SvEmsJ background were previously characterized (Demonbreun et al., 2011; Demonbreun et al., 2014). Age at start was approximately 9 months for long-term experiments. For experiments with Dysf-null and wildtype mice, both females and males (approximately 1:1 ratio) were randomized in treatment groups. […] Dosing was based on weekly weight measurements (1 mg/kg body weight, (Sali et al., 2012)) in 100 μl total PBS volume per dose. Mice were injected daily via intraperitoneal injection at 7 AM. On injection days, stock solutions stored at −20° C. were diluted into sterile Eppendorf tubes containing sterile phosphate buffered saline (PBS) (#14190; Thermo Fisher, Waltham, Mass.). Puromycin (cat #A1113803, Thermo Scientific, Waltham, Mass.) was administered i.p. as 0.040 μmol/body g, and tissues were snap-frozen 30 minutes after injection. Sterile BD Micro-Fine IV Insulin Syringes (#14-829-1A; Fisher Scientific, Waltham, Mass.) were used to inject the intraperitoneal cavity of non-sedated animals. All animal analyses both during treatment and at endpoint were conducted blinded to treatment groups.
Dosing of metabolic and endocrine biomarkers. Glycogen was quantitated using the Glycogen Assay Kit (#ab65620; Abcam, Cambridge, Mass.) from approximately 25 mg frozen-pulverized whole tissue, following manufacturer's instructions and internal standards for calculating μg/mg values. For measurement of whole-tissue ATP/NAD^+ levels, approximately 25 mg frozen-pulverized tissue was extracted in 10% perchloric acid and neutralized in 0.75 M K2CO3, as previously described (Ramsey et al., 2009). NAD+ and ATP were measured by high-pressure liquid chromatography (HPLC) with Shimadzu LC-20A pump (Shimadzu Scientific Instr Inc, Addison, Ill.) and UV-VIS detector, using a Supelco LC-18-T column (15 cm×[…]; #58970-U; Millipore-Sigma, St Louis, Mo.). […] ATP and NAD^+ eluted as sharp peaks at 3 and 14 minutes, respectively, and were normalized to tissue weight of frozen liver tissue for calculating pmol/mg values. Corticosterone was measured in mouse serum and cortisol was measured in human serum using dedicated ELISA kits (#ADI-900-097, Enzo Life Science, Farmingdale, N.Y.; #K7430-100, BioVision, Milpitas, Calif.) according to manufacturer's instructions and internal standards to calculate ng/ml values. Insulin levels were quantitated in mouse and human serum with species-specific ELISA kits (#10-1247-01 (mouse-specific); #10-1113-01 (human-specific); Mercodia, Uppsala, Sweden), following manufacturer's instructions and internal standards to calculate ng/ml values. Free fatty acids were quantitated using Enzychrom Free Fatty Acid Assay kit (#EFFA-100; BioAssay Systems, Hayward, Calif.), following kit's instructions and standards to calculate μM (serum) and nmol/mg (tissue) values.

Consider `C[C@]12C=CC(=O)C=C1CC[C@@H]1[C@@H]2C(=O)C[C@@]2(C)[C@H]1CC[C@]2(O)C(=O)CO` [prednisone, Prednisone], for which the blood glucose entry was “no change”. Further, for the setting “mean ± s.e.m”, the “serum BCAA” value amounted to 462 ± 7.32 µM, the serum corticosterone was determined as 133 ± 8.36 ng/mL, the serum creatine kinase is given as 3.1 ± 0.16 U/ml and the “serum free fatty acids” value is 547 ± 10.4 µM. Besides, where the note is “mean ± s.e.m”, the serum insulin was determined as 1.51 ± 0.14 ng/mL; the “serum β-hydroxybutyrate” value came to 372 ± 5 µM; the “tissue BCAA, diaphragm” value is 49.4 ± 2.14 nmol/mg; the “tissue BCAA, heart” value is recorded as 1.74 ± 0.08 nmol/mg. For the same molecule, under “mean ± s.e.m”, the “tissue BCAA, omental fat” value was found to be 23.5 ± 0.43 nmol/mg; the “tissue BCAA, quadriceps” value worked out at 95.3 ± 3.21 nmol/mg; the “tissue free fatty acids, heart” value amounted to 0.211 ± 0.01 nmol/mg; the “tissue free fatty acids, omental fat” value stood at 3.91 ± 0.12 nmol/mg. For the same molecule, where the note is “mean ± s.e.m”, the “tissue free fatty acids, quadriceps” value is 0.752 ± 0.05 nmol/mg; the “tissue β-hydroxybutyrate, diaphragm” value was 12.9 ± 0.89 nmol/mg; the “tissue β-hydroxybutyrate, heart” value was 20.2 ± 0.51 nmol/mg; the “tissue β-hydroxybutyrate, omental fat” value came out at 23 ± 1.71 nmol/mg. Where the note is “mean ± s.e.m”, the “tissue β-hydroxybutyrate, quadriceps” value stood at 24.7 ± 1.58 nmol/mg.
